The results in this text go back to patent US10899774B2, “IRAK4 modulators” (Genentech, Inc., priority 2017, dated 2021).

Usually Ki stands for a measure of affinity in units of concentration, obtained from inhibition or displacement.

Structures can show the parent of a compound that is named as a salt.

Chain of human IRAK4 (Q9NWZ3 whole entry, the tested form may be a part): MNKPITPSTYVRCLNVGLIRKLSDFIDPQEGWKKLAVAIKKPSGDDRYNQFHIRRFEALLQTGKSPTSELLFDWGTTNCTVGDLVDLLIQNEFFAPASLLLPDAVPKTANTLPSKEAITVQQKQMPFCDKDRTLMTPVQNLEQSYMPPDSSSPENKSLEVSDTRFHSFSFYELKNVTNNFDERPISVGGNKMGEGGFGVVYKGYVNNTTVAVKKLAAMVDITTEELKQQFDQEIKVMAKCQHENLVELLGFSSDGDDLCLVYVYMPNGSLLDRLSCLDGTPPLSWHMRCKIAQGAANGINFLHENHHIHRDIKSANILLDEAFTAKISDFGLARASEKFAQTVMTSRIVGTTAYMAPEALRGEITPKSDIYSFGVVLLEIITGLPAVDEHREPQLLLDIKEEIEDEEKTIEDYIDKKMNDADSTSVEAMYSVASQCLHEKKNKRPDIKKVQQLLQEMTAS

The assay has as its target human IRAK4 (Homo sapiens (Human), UniProt Q9NWZ3). Briefly: IRAK4 kinase inhibition, Transcreener fluorescence polarization (ADP detection). In kind it is biochemical. Conditions: recombinant full-length His6-IRAK4; 1.25 nM IRAK4; 125 μM ATP; 90 min; ATP Km 642 μM. How it is done:
Compounds were assayed for inhibition of human IRAK4 and IRAK1 catalytic activity using recombinant enzyme produced from insect cells. Full-length IRAK4 protein, carrying an N-terminal His6-Tag, was obtained from Life Technologies (Carlsbad, Calif., USA). The IRAK1 construct was produced internally and was comprised of IRAK1 residues Arg194 to Ser712, preceded by an NH2-terminal His6 tag and the coding sequence for glutathione-S-transferase.
Kinase activities were assayed using the Transcreener-Fluorecescence polarization platform (BelBrook Labs, Madison, Wis., USA) that measures amounts of the reaction product, ADP.
384 well assay plates spotted with compound received 4 μl of a 2× substrate (ATP+peptide) mix in reaction buffer, followed by 4 μl of 2× enzyme diluted in reaction buffer.
(Polarisation of emitted light reports the rotation of a fluorescent probe.)
On to `CC1(C)Cc2cc(NC(=O)c3ccn(-c4ccnc(CO)c4)n3)c(N3CCOCC3)cc2O1` [Example 59, N-(2,2-Dimethyl-6-morpholino-3H-benzofuran-5-yl)-1-[2-(hydroxymethyl)-4-pyridyl]pyrazole-3-carboxamide], for which the Ki was found to be 1.6 nM.

Regarding `CC1(C)Cc2cc(NC(=O)c3cccc(C(F)(F)F)n3)c(N3CCOCC3)cc2O1` [Example 22, N-(2,2-Dimethyl-6-morpholino-2,3-dihydrobenzofuran-5-yl)-6-(trifluoromethyl)picolinamide], the Ki amounted to 25 nM.

In the case of `C[C@@]1(CO)Cc2cc(NC(=O)c3csc4cc(Cl)cnc34)c(N3CCOCC3)cc2O1` (stereo in doubt) [Example 57, (S)-6-Chloro-N-(2-(hydroxymethyl)-2-methyl-6-morpholino-2,3-dihydrobenzofuran-5-yl)thieno[3,2-b]pyridine-3-carboxamide], the Ki was found to be 19 nM.

Regarding `CC1(C)Cc2cc(NC(=O)c3ccc[nH]c3=O)c(N3CCOCC3)cc2O1` [Example 12, N-(2,2-Dimethyl-6-morpholino-2,3-dihydrobenzofuran-5-yl)-2-oxo-1,2-dihydropyridine-3-carboxamide], the Ki was 77 nM.

In the case of `CC1(C)Cc2cc(NC(=O)c3ccn(-c4ccnc(C(C)(C)O)c4)n3)c(N3CCOCC3)cc2O1` [Example 61, N-(2,2-Dimethyl-6-morpholino-3H-benzofuran-5-yl)-1-[2-(1-hydroxy-1-methyl-ethyl)-4-pyridyl]pyrazole-3-carboxamide], the Ki stood at 4.6 nM.

With `C[C@@]1(CO)Cc2cc(NC(=O)c3ccc4cncnn34)c(N3CCOCC3)cc2O1` (single isomer, unassigned) [Example 23], the Ki was determined as 3.6 nM.

On to `CC1(C)Cc2cc(NC(=O)c3cc4ccncc4o3)c(N3CCOCC3)cc2O1` [Example 10, N-(2,2-Dimethyl-6-morpholino-2,3-dihydrobenzofuran-5-yl)furo[2,3-c]pyridine-2-carboxamide], for which the Ki is 27 nM.

`Cc1ccc(C(=O)Nc2cc3c(cc2N2CCOCC2)OC(C)(C)C3)o1` [Example 31, N-(2,2-Dimethyl-6-morpholino-2,3-dihydrobenzofuran-5-yl)-5-methylfuran-2-carboxamide]: the Ki was 23 nM.

Regarding `Cc1cn2cccc(C(=O)Nc3cc4c(cc3N3CCOCC3)OC(C)(C)C4)c2n1` [Example 65, N-(2,2-Dimethyl-6-morpholino-3H-benzofuran-5-yl)-2-methyl-imidazo[1,2-a]pyridine-8-carboxamide], the Ki amounted to 270 nM.

As to `Cc1nc2c(C(=O)Nc3cc4c(cc3N3CCOCC3)OC(C)(C)C4)cncc2[nH]1` [Example 25, N-(2,2-Dimethyl-6-morpholino-2,3-dihydrobenzofuran-5-yl)-2-methyl-3H-imidazo[4,5-c]pyridine-7-carboxamide], the Ki was found to be 35 nM.

Take `CC1(C)Cc2cc(NC(=O)c3cncc4c3nnn4CCO)c(N3CCOCC3)cc2O1` [Example 64, N-(2,2-Dimethyl-6-morpholino-3H-benzofuran-5-yl)-3-(2-hydroxyethyl)triazolo[4,5-c]pyridine-7-carboxamide]: the Ki is 350 nM.

Turning to `CC1(C)Cc2cc(NC(=O)c3cnc4cccnn34)c(N3CCOCC3)cc2O1` [Example 15, N-(2,2-Dimethyl-6-morpholino-2,3-dihydrobenzofuran-5-yl)imidazo[1,2-b]pyridazine-3-carboxamide], the Ki worked out at 36 nM.

On to `CC1(C)Cc2cc(NC(=O)c3cnccn3)c(N3CCOCC3)cc2O1` [Example 11, N-(2,2-Dimethyl-6-morpholino-2,3-dihydrobenzofuran-5-yl)pyrazine-2-carboxamide], for which the Ki worked out at 290 nM.

With `CC1(CO)Cc2cc(NC(=O)c3csc4cc(C#N)cnc34)c(N3CCOCC3)cc2O1` (centres unmarked) [Example 69, 6-Cyano-N-(2-(hydroxymethyl)-2-methyl-6-morpholino-2,3-dihydrobenzofuran-5-yl)thieno[3,2-b]pyridine-3-carboxamide Formate], the Ki was found to be 28 nM.

Take `COc1ccc(-n2ccc(C(=O)Nc3cc4c(cc3N3CCOCC3)OC(C)(C)C4)n2)cn1` [Example 58, N-(2,2-Dimethyl-6-morpholino-3H-benzofuran-5-yl)-1-(6-methoxy-3-pyridyl)pyrazole-3-carboxamide]: the Ki was 29 nM.

With `Cc1nc(C(=O)Nc2cc3c(cc2N2CCOCC2)OC(C)(C)C3)co1` [Example 51, N-(2,2-Dimethyl-6-morpholino-3H-benzofuran-5-yl)-2-methyl-oxazole-4-carboxamide], the Ki was 18 nM.

Consider `C[C@]1(CO)Cc2cc(NC(=O)c3ccc4cccnn34)c(N3CCOCC3)cc2O1` (single isomer, unassigned) [Example 19], for which the Ki came to 21 nM.

As to `CC1(C)Cc2cc(NC(=O)c3cccc4[nH]c(CO)nc34)c(N3CCOCC3)cc2O1` [Example 40, N-(2,2-Dimethyl-6-morpholino-2,3-dihydrobenzofuran-5-yl)-2-(hydroxymethyl)-1H-benzo[d]imidazole-4-carboxamide], the Ki worked out at 28 nM.

`CCc1cnc(C(=O)Nc2cc3c(cc2N2CCOCC2)OC(C)(C)C3)[nH]1` [Example 43, N-(2,2-Dimethyl-6-morpholino-2,3-dihydrobenzofuran-5-yl)-5-ethyl-1H-imidazole-2-carboxamide]: the Ki was 110 nM.

In the case of `CC1(C)Cc2cc(NC(=O)c3ccn(-c4cc[nH]c(=O)c4)n3)c(N3CCOCC3)cc2O1` [Example 70, N-(2,2-Dimethyl-6-morpholino-3H-benzofuran-5-yl)-1-(2-oxo-1H-pyridin-4-yl)pyrazole-3-carboxamide], the Ki was 2.7 nM.

With `Cn1ccc(C(=O)Nc2cc3c(cc2N2CCOCC2)O[C@@](C)(CO)C3)n1` (single isomer, unassigned) [Example 17], the Ki amounted to 120 nM.

Regarding `CC1(C)Cc2cc(NC(=O)c3cnn4c3OCCC4)c(N3CCOCC3)cc2O1` [Example 1, N-(2,2-Dimethyl-6-morpholino-2,3-dihydrobenzofuran-5-yl)-6,7-dihydro-5H-pyrazolo[5,1-b][1,3]oxazine-3-carboxamide], the Ki came to 67 nM.

Regarding `Cn1nnc2c(C(=O)Nc3cc4c(cc3N3CCOCC3)OC(C)(C)C4)cncc21` [Example 50, N-(2,2-Dimethyl-6-morpholino-3H-benzofuran-5-yl)-3-methyl-triazolo[4,5-c]pyridine-7-carboxamide], the inhibition constant (Ki) turned out to be 78 nM.

As to `CC1(C)Cc2cc(NC(=O)c3cncc4[nH]cnc34)c(N3CCOCC3)cc2O1` [Example 21, N-(2,2-Dimethyl-6-morpholino-2,3-dihydrobenzofuran-5-yl)-3H-imidazo[4,5-c]pyridine-7-carboxamide], the Ki came to 280 nM.

Regarding `CC1(C)Cc2cc(NC(=O)c3cnn4ccc(=O)[nH]c34)c(N3CCOCC3)cc2O1` [Example 71, N-(2,2-dimethyl-6-morpholino-3H-benzofuran-5-yl)-5-oxo-4H-pyrazolo[1,5-a]pyrimidine-3-carboxamide], the inhibition constant (Ki) worked out at 930 nM.

For the compound `CCn1nnc2c(C(=O)Nc3cc4c(cc3N3CCOCC3)OC(C)(C)C4)cncc21` [Example 53, N-(2,2-Dimethyl-6-morpholino-3H-benzofuran-5-yl)-3-ethyl-triazolo[4,5-c]pyridine-7-carboxamide], the Ki amounted to 220 nM.

As to `Cn1nnc2c(C(=O)Nc3cc4c(cc3N3CCOCC3)OC(C)(CO)C4)cncc21` (centres unmarked) [Example 52, N-(2-(Hydroxymethyl)-2-methyl-6-morpholino-2,3-dihydrobenzofuran-5-yl)-3-methyl-3H-[1,2,3]triazolo[4,5-c]pyridine-7-carboxamide], the Ki came to 100 nM.

For `Cn1nnc2c(C(=O)Nc3cc4c(cc3N3CCOCC3)O[C@@](C)(CO)C4)cncc21` (single isomer, unassigned) [Example 67], the Ki amounted to 180 nM.

`CC(=O)Nc1cc(-n2ccc(C(=O)Nc3cc4c(cc3N3CCOCC3)OC(C)(C)C4)n2)ccn1` [Example 49, 1-(2-Acetamido-4-pyridyl)-N-(2,2-dimethyl-6-morpholino-3H-benzofuran-5-yl)pyrazole-3-carboxamide]: the Ki was 7.6 nM.

With `CC1(C)Cc2cc(NC(=O)c3ccco3)c(N3CCOCC3)cc2O1` [Example 48, N-(2,2-Dimethyl-6-morpholino-2,3-dihydrobenzofuran-5-yl)furan-2-carboxamide], the Ki was 220 nM.

As to `CC1(C)Cc2cc(NC(=O)c3coc(-c4ccncn4)n3)c(N3CCOCC3)cc2O1` [Example 34, N-(2,2-Dimethyl-6-morpholino-2,3-dihydrobenzofuran-5-yl)-2-(pyrimidin-4-yl)oxazole-4-carboxamide], the inhibitory constant (Ki) is 17 nM.

In the case of `CC1(C)Cc2cc(NC(=O)c3cccs3)c(N3CCOCC3)cc2O1` [Example 30, N-(2,2-Dimethyl-6-morpholino-2,3-dihydrobenzofuran-5-yl)thiophene-2-carboxamide], the Ki stood at 780 nM.

`CC1(C)Cc2cc(NC(=O)c3cscn3)c(N3CCOCC3)cc2O1` [Example 42, N-(2,2-Dimethyl-6-morpholino-2,3-dihydrobenzofuran-5-yl)thiazole-4-carboxamide]: the Ki was 98 nM.

Turning to `CC1COc2c(C(=O)Nc3cc4c(cc3N3CCOCC3)OC(C)(CO)C4)cnn2C1` (centres unmarked) [Example 55, N-[2-(Hydroxymethyl)-2-methyl-6-morpholino-3H-benzofuran-5-yl]-6-methyl-6,7-dihydro-5H-pyrazolo[5,1-b][1,3]oxazine-3-carboxamide], the Ki was found to be 390 nM.

In the case of `Cc1cnc(C(=O)Nc2cc3c(cc2N2CCOCC2)OC(C)(C)C3)cn1` [Example 13, N-(2,2-Dimethyl-6-morpholino-2,3-dihydrobenzofuran-5-yl)-5-methylpyrazine-2-carboxamide], the Ki amounted to 280 nM.
